For assay [1], the system named is U-937. In words: Cytotoxicity against Homo sapiens (human) U937 cells after 48 hr by MTT assay. The class given is functional, cell-based. The conditions noted are these: U-937, 48 h. For orientation: Formazan colour is commonly taken as a measure of viable cells.
Assay [2] concerns U-937. The assay is described as follows: Ratio of etoposide IC50 to compound IC50 for Homo sapiens (human) U937 cells after 48 hr by MTT assay. The class given is functional.
In a further assay the test system is THP-1. The assay is described as follows: Cytotoxicity against Homo sapiens (human) THP1 cells after 48 hr by MTT assay. The class given is functional, cell-based. The conditions noted are these: THP-1, 48 h.

A word on the IC50: it is the concentration that inhibits the measured activity by half. Low values mean higher potency, high ones lower potency.

Converted amounts (≈) assume the structure as drawn.

Regarding `N#Cc1c(-c2ccccc2)cc(C(F)(F)F)c2c3n(nc12)[C@H]1C=CCC[C@H]1CN3`, in the assay with U-937 [1], it took 2.64 µg/mL (≈ 6.69 µM) to reach half-maximal inhibition (IC50). Besides, in the assay on U-937 [2], the “Ratio IC50” value was 4.

On to `N#Cc1c(-c2ccccc2)cc(C(F)(F)F)c2c3n(nc12)C(c1ccccc1)CCN3` (configuration not stated), for which, in the assay on U-937 [1], the half-inhibitory concentration (IC50) was found to be 9.36 µg/mL (≈ 22.4 µM). Also, the “Ratio IC50” value in the assay on U-937 [2] is given as 1.13.

Molecule `C=CC1(C)CCNc2c3c(-c4ccccc4)cc(C(F)(F)F)c(C#N)c3nn21` (configuration not stated) had a concentration for half-maximal inhibition (IC50) in the assay with U-937 [1] of 9.73 µg/mL (≈ 25.4 µM). Further, the “Ratio IC50” value in the assay with U-937 [2] is reported as 1.09.

In the assay on U-937 [1], `N#Cc1c(C(F)(F)F)cc(-c2ccccc2)c2c3n(nc12)C(c1ccccc1)CCN3` (configuration not stated) had an IC50 of 7.92 µg/mL (≈ 18.9 µM). In the assay on U-937 [2], the “Ratio IC50” value was found to be 1.33.

Regarding `C=CC1(C)C[C@H](c2ccccc2)Nc2c3c(-c4ccccc4)cc(C(F)(F)F)c(C#N)c3nn21` (some centres not stated), the IC50 in the assay on U-937 [1] stood at 8.7 µg/mL (≈ 19 µM); in the assay on THP-1 it was 53.3 µg/mL (≈ 116 µM). In the assay with U-937 [2], the “Ratio IC50” value came to 1.21.

For `N#Cc1c(-c2ccccc2)cc(C(F)(F)F)c2c3n(nc12)C(c1ccccc1)C[C@H](c1ccccc1)N3` (some centres not stated), in the assay with U-937 [1], the IC50 came out at 7.52 µg/mL (≈ 15.2 µM). Besides, in the assay with U-937 [2], the “Ratio IC50” value was 1.4.

As to `N#Cc1c(C(F)(F)F)cc(-c2ccccc2)c2c3n(nc12)[C@H]1OCCC[C@H]1CN3`, the IC50 in the assay with U-937 [1] was found to be 11.2 µg/mL (≈ 28.2 µM); with THP-1, 33.5 µg/mL (≈ 84.1 µM).

Regarding `C=CC1(C)CCNc2c3c(C(F)(F)F)cc(-c4ccccc4)c(C#N)c3nn21` (configuration not stated), in the assay with U-937 [1], half-maximal inhibition (IC50) was put at 53.5 µg/mL (≈ 140 µM).

As to `N#Cc1c(-c2ccccc2)cc(C(F)(F)F)c2c3n(nc12)[C@H]1OCCC[C@H]1CN3`, the IC50 came to 6.49 µg/mL (≈ 16.3 µM) in the assay with U-937 [1] and 65.4 µg/mL (≈ 164 µM) in the assay on THP-1. The “Ratio IC50” value in the assay on U-937 [2] amounted to 1.63.

Regarding `N#Cc1c(C(F)(F)F)cc(-c2ccccc2)c2c3n(nc12)[C@H]1OCCC[C@H]1[C@H](c1ccccc1)N3`, the IC50 in the assay on U-937 [1] stood at 9.02 µg/mL (≈ 19 µM); in the assay on THP-1, 79.9 µg/mL (≈ 168 µM). In addition, the “Ratio IC50” value with U-937 [2] worked out at 1.17.
